Measurements reported in US20100210694A1 (NICOX S.A., priority 2007, published 2010).
Where two headings read alike, the source gives them in different places.

Tests used:
[1] = Hydrolysis in human serum; type: in vitro ADME; conditions: male, 37 °C, compound 250 μM, read-out: Human serum stability t1/2
Method: A solution of each compound of the invention (10 mM) in acetonitrile was added to human serum (from human male AB plasma, Sigma) preheated at 37° C., the final concentration of the compound was 250 μM. Resulting solution were incubated at 37±0.5° C. and at appropriate time intervals 500 μL of reaction mixture was withdrawn and added to 750 μL of acetonitrile containing 0.1% trifluoroacetic acid in order to deproteinize the serum. Sample was sonicated, vortexed and then centrifuged for 10′ at 2150 g. The clear supernatant was filtered by 0.45 μm PTFE filters (Alltech) and analysed by RP-HPLC.
(§1) Analyses were carried out with a HP 1100 chromatograph system (Agilent Technologies, Palo Alto, Calif., USA) equipped with a quaternary pump (model G1311A), a membrane degasser (G1379A), a diode-array detector (DAD) (model G1315B) integrated in the HP1100 system. Data analysis was done using a HP ChemStation system (Agilent Technologies). The analytical column was a Nucleosil 100-5018 Nautilus (250×4.6 mm, 5 μm particle size) (Macherey-Nagel). The mobile phase consisting of acetonitrile/water (55/45) with 0.1% trifluoroacetic acid and the flow-rate was 1.2 mL/min. The injection volume was 20 μL (Rheodyne, Cotati, Calif.). The column effluent was monitored at 240 nm (for salicylic acid) and at 226 nm (for all the other products) and referenced against a 360 nm wavelength. Quantitation was done by comparison of peak areas with standards chromatographed under the same conditions. The hydrolysis followed first-order kinetics. The observed pseudo-first-order rate constants (kobs) were calculated from the slopes of linear plots of the natural logarithms of percent remaining products against time and the corresponding half-lives (t1/2) were obtained from […]

[2] = Hydrolysis in acidic medium (pH 1) and in phosphate buffer (pH 7.4); type: physicochemical; conditions: for Stability in buffered solutions pH 1 % unchanged after 6 h: HCl 0.1M, pH 1, 37 °C; for Stability in buffered solutions pH 1 % unchanged after 6 h / Stability in buffered solutions pH 7.4 % unchanged after 6 h: 250 μM; for Stability in buffered solutions pH 7.4 % unchanged after 6 h: phosphate buffer 50 mM pH 7.4, 37 °C
Method: A solution of each compound of the invention (10 mM) in acetonitrile was added to a HCl 0.1M or to a phosphate buffer 50 mM pH=7.4, containing, when necessary, 10-20% of acetonitrile as cosolvent. The final concentration of the compound was 250 μM. Resulting solution was kept at 37±0.5° C. and at appropriate time intervals a 20 μL aliquote of reaction solution was analysed by RP-HPLC.
as §1

rat aorta strips = assay: Vasodilating activity on precontracted rat aorta strips; type: cell-based; conditions: endothelium-denuded rat aortic strips contracted with 1 μM L-phenylephrine; for EC50: read-out: vasodilating activity EC50 ± SE
Method: Thoracic aortas were isolated from male Wistar rats weighing 180-200 g. The endothelium was removed and the vessels were helically cut: three strips were obtained from each aorta. The tissues were mounted under 1.0 g tension in organ baths containing 30 ml of Krebs-bicarbonate buffer with the following composition (mM): NaCl 111.2, KCl 5.0, CaCl2 2.5, MgSO4 1.2, KH2PO4 1.0, NaHCO3 12.0, glucose 11.1, maintained at 37° C. and gassed with 95% O2-5% CO2 (pH=7.4). The aortic strips were allowed to equilibrate for 120 min and then contracted with 1 μM L-phenylephrine. When the response to the agonist reached a plateau, cumulative concentrations of the vasodilating agent were added.
All the compounds of the invention were capable to relax precontracted rat aorta strips in a concentration dependent manner.
When the vasodilator experiments were repeated in the presence of 1 μM ODQ (1H-[1,2,4]oxadiazolo[4,3-a]quinoxalin-1-one), a well known inhibitor of the soluble guanylate cyclase (sGC), a decrease in the vasodilator potencies was observed.

human platelets = assay: Inhibition of platelet aggregation in vitro; type: cell-based; conditions: human PRP, collagen 1.0 μg/mL
Method: Platelet rich plasma (PRP) is prepared by centrifugation of citrated blood at 200 g for 20 minutes. […] Collagen (1.0 μg/mL) is used as platelet activator in PRP. The inhibitory activity of the compounds is tested by addition of drug to PRP 10 or 30 min before addition of the stimulus.
The antiaggregatory activity of the compounds of the invention is evaluated as % inhibition of platelet aggregation compared to control samples.

[3] = drug added 10 min before stimulus, read-out: Platelet Aggregation IC50 (collagen 95%) 10 min
[4] = drug added 30 min before stimulus, read-out: Platelet Aggregation IC50 (collagen 95%) 30 min

half-life at 250 μM [1]	SMILES	Stability in buffered solutions pH 1 % unchanged after 6 h [2]	Stability in buffered solutions pH 7.4 % unchanged after 6 h [2]	EC50 (rat aorta strips)	further results
2 min	CC(=O)Oc1ccccc1C(=O)OCOC(=O)c1ccc(SCCCO[N+](=O)[O-])cc1 [(11), [(4-{[3-(Nitrooxy)propyl]thio}benzoyl)oxy]methyl 2-(acetyloxy)benzoate]	>98%	>98%		
1.5 min	CC(=O)Oc1ccccc1C(=O)OCOC(=O)Cc1ccc(OCCCO[N+](=O)[O-])cc1 [(9)]	>98%	>98%	300 ± 60 nM	
1 min	CC(=O)Oc1ccccc1C(=O)OCOC(=O)c1ccc(S(=O)(=O)CCCO[N+](=O)[O-])cc1 [(15), [(4-{[3-(Nitrooxy)propyl]sulfonyl}benzoyl)oxy]methyl 2-(acetyloxy)benzoate]	>98%	70%		half-life at 250 μM ([2]; phosphate buffer 50 mM pH 7.4, phosphate buffer pH 7.4, 37 °C, read-out: t1/2 in buffered solution pH 7.4): ~720 min; IC50 (human platelets; [3]): 34000 nM; IC50 (human platelets; [4]): 17000 nM
63 min	CC(=O)Oc1ccccc1C(=O)O [Aspirin, reference compound]				vasodilating activity EC50 ± SE (rat aorta strips): no effect
4.2 min	CC(=O)Oc1ccccc1C(=O)OC(C)OC(=O)c1ccc(SCCCO[N+](=O)[O-])cc1 (centres unmarked) [(24), 1-{[4-([3-(nitrooxy)propyl]thio}benzoyl)oxy]ethyl 2-(acetyloxy)Benzoate]	>98%	>98%		

More lines, now with the values behind:

SMILES	half-life at 250 μM [1]	Stability in buffered solutions pH 1 % unchanged after 6 h [2]	Stability in buffered solutions pH 7.4 % unchanged after 6 h [2]	EC50 (rat aorta strips)	further results
CC(=O)Oc1ccccc1C(=O)OCOC(=O)c1ccc(OCCCO[N+](=O)[O-])cc1O [(14), {[2-(Acetyloxy)benzoyl]oxy}methyl 2-hydroxy-4-[3-(nitrooxy)propoxy]benzoate]				8 ± 1.1 nM	
CC(=O)Oc1ccccc1C(=O)OCOC(=O)c1ccc(SCc2no[n+]([O-])c2C#N)cc1 [(22), [(4-{[(3-Cyano-furoxan-4-yl)methyl]thio}benzoyl)oxy]methyl 2-(acetyloxy)benzoate]					melting point: 98.5 to 101.5 °C
CC(=O)Oc1ccccc1C(=O)OCOC(=O)c1ccccc1OC(=O)CCC(CO[N+](=O)[O-])O[N+](=O)[O-] (centres unmarked) [(13), [(2-{[4,5-Bis(nitrooxy)pentanoyl]oxy}benzoyl)oxy]methyl 2-(acetyloxy)benzoate]				82 ± 14 nM	
CC(=O)Oc1ccccc1C(=O)OCOC(=O)CCCC(CO[N+](=O)[O-])O[N+](=O)[O-] (centres unmarked) [(6), {[5,6-Bis(nitrooxy)hexanoyl]oxy}methyl 2-(acetyloxy)benzoate]	2.7 min	>98%	100%	390 ± 60 nM	
CC(=O)Oc1ccccc1C(=O)OCOC(=O)CCCCC(CO[N+](=O)[O-])O[N+](=O)[O-] (centres unmarked) [(8), {[6,7-Bis(nitrooxy)heptanoyl]oxy}methyl 2-(acetyloxy)benzoate]	2.5 min	>98%	100%	520 ± 90 nM	
CC(=O)Oc1ccccc1C(=O)OCOC(=O)c1ccc(CCCO[N+](=O)[O-])cc1 [(12), ({4-[3-(Nitrooxy)propyl]benzoyl}oxy)methyl 2-(acetyloxy)benzoate]				75 ± 14 nM	IC50 (human platelets; [3]): 41000 nM; IC50 (human platelets; [4]): 14000 nM
CC(=O)Oc1ccccc1C(=O)OCOC(=O)c1ccc(SCc2no[n+]([O-])c2C(N)=O)cc1 [(21), [(4-{[(3-Aminocarbonyl-furoxan-4-yl)methyl]thio}benzoyl)oxy]methyl 2-(acetyloxy)benzoate]					melting point: 149 to 151 °C
CC(=O)Oc1ccccc1C(=O)OCOC(=O)c1ccc(SCc2no[n+]([O-])c2C)cc1 [(20), [(4-{[(3-Methyl-furoxan-4-yl)methyl]thio}benzoyl)oxy]methyl 2-(acetyloxy)benzoate]					melting point: 96 to 97 °C
CC(=O)Oc1ccccc1C(=O)OCOC(=O)CCCCCCO[N+](=O)[O-] [(7), {[7-(Nitrooxy)heptanoyl]oxy}methyl 2-(acetyloxy)benzoate]				1600 ± 200 nM	
CC(=O)Oc1ccccc1C(=O)OCOC(=O)c1ccc(SCC(CO[N+](=O)[O-])O[N+](=O)[O-])cc1 (centres unmarked) [(16), [(4-{[2,3-Bis(nitrooxy)propyl]thio}benzoyl)oxy]methyl 2-(acetyloxy)benzoate]	4.8 min	>98%	>98%		
CC(=O)Oc1ccccc1C(=O)OCOC(=O)CCCCCO[N+](=O)[O-] [(5), {[6-(Nitrooxy)hexanoyl]oxy}methyl 2-(acetyloxy)benzoate]				1200 ± 200 nM	
CC(=O)Oc1ccccc1C(=O)OCOC(=O)CCCCO[N+](=O)[O-] [(4)]				1900 ± 500 nM	
CC(=O)Oc1ccccc1C(=O)OCOC(=O)Cc1ccc(OCC(CO[N+](=O)[O-])O[N+](=O)[O-])cc1 (centres unmarked) [(10), [(2-{4-[2,3-Bis(nitrooxy)propoxy]phenyl}acetyl)oxy]methyl 2-(acetyloxy)benzoate]				270 ± 50 nM	
CC(=O)Oc1ccccc1C(=O)OCOC(=O)c1ccc(OCCCO[N+](=O)[O-])cc1 [(2), ({4-[3-(Nitrooxy)propoxy]benzoyl}oxy)methyl 2-(acetyloxy)benzoate]	3 min	>98%	>98%	17 ± 3 nM	
CC(=O)Oc1ccccc1C(=O)OCOC(=O)c1ccc(CC(CO[N+](=O)[O-])O[N+](=O)[O-])cc1 (centres unmarked) [(1), ({4-[2,3-Bis(nitrooxy)propyl]benzoyl}oxy)methyl 2-(acetyloxy)benzoate]	3.4 min	>98%	100%	52 ± 7 nM	
CC(=O)Oc1ccccc1C(=O)OCOC(=O)c1ccc(OCC(CO[N+](=O)[O-])O[N+](=O)[O-])cc1 (centres unmarked) [(3), ({4-[2,3-Bis(nitrooxy)propoxy]benzoyl}oxy)methyl 2-(acetyloxy)benzoate]	5.4 min	>98%	>98%	41 ± 7 nM	
